From ChEMBL document CHEMBL1177675, “Synthesis and antiproliferative evaluation of certain iminonaphtho[2,3-b]furan derivatives” (Bioorg Med Chem, 2010)

What was measured:
[1] = system: NCI-H460; experiment: Cytotoxicity against human NCI-H460 cells at 4 ug/ml after 48 hrs by sulforhodamine B assay relative to control; assay type: functional
[2] = system: SF-268; experiment: Cytotoxicity against human SF268 cells at 4 ug/ml after 48 hrs by sulforhodamine B assay relative to control; assay type: functional
[3] = system: MCF7; experiment: Cytotoxicity against human MCF7 cells at 4 ug/ml after 48 hrs by sulforhodamine B assay relative to control; assay type: functional
[4] = Cytotoxicity against human Detroit 551 cells after 72 hrs by XTT assay; assay type: cell-based
[5] = system: K562; experiment: Cell cycle arrest in human K562 cells assessed as accumulation at G2/M phase at 1 uM after 24 hrs using propidium iodide staining by flow cytometry; assay type: functional
[6] = system: NCI-H460; experiment: Selectivity index, ratio of GI50 for human Detroit 551 cells to GI50 for human NCI-H460 cells; assay type: functional
[7] = system: K562; experiment: Cell cycle arrest in human K562 cells assessed as accumulation at G0/G1 phase at 1 uM after 24 hrs using propidium iodide staining by flow cytometry; assay type: functional
[8] = system: K562; experiment: Cytotoxicity against human K562 cells after 72 hrs by XTT assay; assay type: functional; conditions: K562, 72 h
[9] = system: NCI-H460; experiment: Cytotoxicity against human NCI-H460 cells after 72 hrs by XTT assay; assay type: functional; conditions: NCI-H460, 72 h
[10] = system: MCF7; experiment: Cytotoxicity against human MCF7 cells after 72 hrs by XTT assay; assay type: functional; conditions: MCF7, 72 h
[11] = system: MCF7; experiment: Selectivity index, ratio of GI50 for human Detroit 551 cells to GI50 for human MCF7 cells; assay type: functional
[12] = system: K562; experiment: Cell cycle arrest in human K562 cells assessed as accumulation at Sub-G1 phase at 1 uM after 24 hrs using propidium iodide staining by flow cytometry; assay type: functional
[13] = system: SF-268; experiment: Cytotoxicity against human SF268 cells after 72 hrs by XTT assay; assay type: functional; conditions: SF-268, 72 h
[14] = system: K562; experiment: Selectivity index, ratio of GI50 for human Detroit 551 cells to GI50 for human K562 cells; assay type: functional
[15] = system: SF-268; experiment: Selectivity index, ratio of GI50 for human Detroit 551 cells to GI50 for human SF268 cells; assay type: functional
[16] = system: K562; experiment: Cell cycle arrest in human K562 cells assessed as accumulation at S phase at 1 uM after 24 hrs using propidium iodide staining by flow cytometry; assay type: functional

| Compound | Activity [1] [%] | Activity [2] [%] | Activity [3] [%] | GI50 at 72 h [4] [µM] | Activity [5] [%] | RatioGI50 [6] | Activity [7] [%] | GI50 [8] [µM] | GI50 [9] [µM] | GI50 [10] [µM] | RatioGI50 [11] | Activity [12] [%] | GI50 [13] [µM] | RatioGI50 [14] | RatioGI50 [15] | Activity [16] [%] |
| --- | --- | --- | --- | --- | --- | --- | --- | --- | --- | --- | --- | --- | --- | --- | --- | --- |
| O=C1c2ccccc2/C(=N/c2ccccc2)c2ccoc21 | 65 | 74 | 74 |  |  |  |  |  |  |  |  |  |  |  |  |  |
| Br.NCCCO/N=C1/c2ccccc2C(=O)c2occc21 | 44 | 15 | 10 | 40.9 | 63.3 | 5.69 | 33.5 | 6.62 | 7.19 | 12.6 | 3.24 | 4.19 | 9.02 | 6.18 | 4.53 | 3.2 |
| Cc1ccc(/N=C2/c3ccccc3/C(=N/c3ccc(C)cc3)c3occc32)cc1 | 104 | 118 | 104 |  |  |  |  |  |  |  |  |  |  |  |  |  |
| O=C1c2ccccc2/C(=N/c2ccc(F)cc2)c2ccoc21 | 67 | 77 | 75 |  |  |  |  |  |  |  |  |  |  |  |  |  |
| c1ccc(/N=C2/c3ccccc3/C(=N/c3ccccc3)c3occc32)cc1 | 111 | 102 | 111 |  |  |  |  |  |  |  |  |  |  |  |  |  |
| Fc1ccc(/N=C2/c3ccccc3/C(=N/c3ccc(F)cc3)c3occc32)cc1 | 103 | 118 | 102 |  |  |  |  |  |  |  |  |  |  |  |  |  |
| CN(C)CCO/N=C1/c2ccccc2C(=O)c2occc21 | 51 | 53 | 78 |  |  |  |  |  |  |  |  |  |  |  |  |  |
| Clc1ccc(/N=C2/c3ccccc3/C(=N/c3ccc(Cl)cc3)c3occc32)cc1 | 112 | 116 | 109 |  |  |  |  |  |  |  |  |  |  |  |  |  |
| COc1cccc2c1C(=O)c1c(O)c3c(c(O)c1C2=O)C[C@@](O)(C(C)=O)C[C@@H]3O[C@H]1C[C@H](N)[C@H](O)[C@H](C)O1 [DAUNORUBICIN] | 15 | 16 | 30 | 1.77 |  | 4.66 |  | 0.0074 | 0.38 | 0.86 | 2.06 |  | 0.6 | 239 | 2.95 |  |
| CC(=O)O/N=C1/c2ccccc2C(=O)c2occc21 | 5 | 18 | 10 | > 100 | 41.9 | >13.4 | 29 | 8.59 | 7.46 | 13.3 | >7.51 | 5.82 | 7.9 | >11.64 | >12.66 | 30.2 |
| O=C1c2ccccc2/C(=N/OCCN2CCOCC2)c2ccoc21 | 68 | 90 | 97 |  |  |  |  |  |  |  |  |  |  |  |  |  |
| CCN(CC)CCOC(=O)c1ccc(/N=C2/c3ccccc3/C(=N/c3ccc(C(=O)OCCN(CC)CC)cc3)c3occc32)cc1 | -1 | 18 | -1 | 1.97 | 52.5 | 0.88 | 40.4 | 0.63 | 2.23 | 2.6 | 0.76 | 5.56 | 4.1 | 3.13 | 0.49 | 7.1 |
| O=C1c2ccccc2/C(=N/OCc2ccccc2)c2ccoc21 | 85 | 103 | 93 |  |  |  |  |  |  |  |  |  |  |  |  |  |
| CN(C)CCCO/N=C1/c2ccccc2C(=O)c2occc21 | 51 | 54 | 74 |  |  |  |  |  |  |  |  |  |  |  |  |  |
| O=[N+]([O-])c1ccc(/N=C2/c3ccccc3/C(=N/c3ccc([N+](=O)[O-])cc3)c3occc32)cc1 | 117 | 118 | 111 |  |  |  |  |  |  |  |  |  |  |  |  |  |
| FC(F)(F)c1ccc(/N=C2/c3ccccc3/C(=N/c3ccc(C(F)(F)F)cc3)c3occc32)cc1 | 115 | 105 | 111 |  |  |  |  |  |  |  |  |  |  |  |  |  |
| COc1ccc(/N=C2/c3ccccc3/C(=N/c3ccc(OC)cc3)c3occc32)cc1 | 90 | 85 | 86 |  |  |  |  |  |  |  |  |  |  |  |  |  |
| O=C1c2ccccc2/C(=N/OCCN2CCCCC2)c2ccoc21 | 79 | 64 | 87 |  |  |  |  |  |  |  |  |  |  |  |  |  |
| O=C1c2ccccc2/C(=N/OCCN2CCCC2)c2ccoc21 | 51 | 58 | 72 |  |  |  |  |  |  |  |  |  |  |  |  |  |
| O=C1c2ccccc2/C(=N/O)c2ccoc21 | 5 | 16 | 10 | > 100 | 58 | >12.97 | 37.7 | 0.82 | 7.71 | 12.3 | >8.13 | 4.41 | 8.85 | >121.95 | >11.3 | 4.4 |
| CC[C@@]1(O)C(=O)OCc2c1cc1n(c2=O)Cc2cc3ccccc3nc2-1 [CAMPTOTHECIN] | 1 | 25 | 33 | 0.99 |  | 33 |  | 0.06 | 0.03 | 0.57 | 1.74 |  | 0.19 | 16.5 | 5.21 |  |
| O=C1c2ccccc2C(=O)c2occc21 | 2 | 16 | 1 | 14.8 | 43.2 | 2.92 | 27.4 | 0.65 | 5.07 | 5.92 | 2.5 | 8.24 | 5.65 | 22.82 | 2.62 | 29.4 |
| O=C1C(=O)c2ccoc2-c2ccccc21 | -1 | 0 | 0 | 5.77 | 12.7 | 0.9 | 36.1 | 0.64 | 6.38 | 6.42 | 0.9 | 3.75 | 6.38 | 9.02 | 0.9 | 51.2 |
